For one assay, the system named is VEGF-induced pERK. Nature of the assay: Western blot of VEGF-induced ERK MAP kinase phosphorylation in HUVECs. The format is cell-based, human. Conditions: VEGF 40 ng/mL. The procedure: (§1) EA.hy926 cells or HUVECs were seeded in 6-well plates and starved in a serum-free medium for 4 h after reaching 80% confluence. The compounds were added 30 min prior to stimulation with the corresponding ligands. EA.hy926 cells were incubated with BMP9 (1 ng/mL), BMP6 (50 ng/mL), TGF-β2 (1 ng/mL), or vehicle control for 1 h. For HUVECs, after 4 h starvation, the cells were pre-treated with or without the indicated compounds for 30 min and subsequently stimulated with VEGF (40 ng/mL) for 10 min. The cells were harvested and lysed in radioimmunoprecipitation assay (RIPA) lysis buffer containing 1× complete protease inhibitor cocktail (11836153001, Roche, Basel, Switzerland). The protein concentration was determined using the DC protein assay kit (5000111, Bio-Rad). After adding loading buffer, the samples were boiled and proteins separated by sodium dodecyl sulfate polyacrylamide gel electrophoresis (SDS-PAGE). Proteins in the gel were transferred to polyvinylidene difluoride (PVDF) membranes (IPVH00010, Merck Millipore, Burlington, MA, USA) and immunoblotted with 1000 times diluted primary antibodies: phospho-SMAD1/5 (9516 S, Cell Signaling Technology, Leiden, The Netherlands), phospho-SMAD2 (pSMAD2, home-made), SMAD1 (6944 S, Cell Signaling Technology), SMAD2 (3103 S, Cell Signaling Technology), phospho-extracellular signal-regulated kinase/mitogen-activated protein kinase (pERK/MAPK, 4370, Cell Signaling Technology), mitogen-activated protein kinase/ERK1/2 (ERK1/2/MAPK, 9102 S, Cell Signaling Techonol), VEGFR (2479, Cell Signaling), pVEGFR (2478, Cell Signaling Technology), α/β-Tubulin (2148, Cell Signaling Technology), glyceraldehyde 3-phosphate dehydrogenase (GAPDH, MAB374, Merck Millipore). Clarity™ enhanced chemiluminescence (ECL) reagent (1705060, Bio-Rad) was used to visualize secondary antibodies conjugated to horseradish peroxidase (HRP). GAPDH or Tubulin was used as protein loading controls. […] The protein bands were quantified using ImageJ (National Institutes of Health, Bethesda, MD, USA).
For orientation: A western blot detects proteins with antibodies after separation by electrophoresis.

The subject of another assay is HUVECs. Briefly: Cord formation assay, HUVEC-eGFP co-cultured with human dermal fibroblasts. The format is cell-based. Conditions: for effect on VEGF-induced cord length, different concentrations: dose range; for effect on VEGF-induced EC cord formation: VEGF 15 ng/mL, 6 days, 0.5 µM (Sunitinib 1 μM). Here is the method:
The cord formation assay was performed according to the IncuCyte Angiogenesis PrimeKit Assay protocol (Cell Player Angiogenesis PrimeKit, Essen BioScience). In brief, GFP labeled HUVEC cells and human dermal fibroblasts were mixed in a 1:20 ratio and seeded per well in a 96-well plate (3150 cells in total). Thereafter, the cells were exposed to VEGF alone or in combination with the compounds (at indicated concentrations) in a complete assay medium. Pictures were captured every 6 h for up to 9 days To monitor the cord formation. The medium was refreshed every 2 or 3 days. Cords formation was visualized by the GFP fluorescence, and cord length was quantified with the instrument’s software. All the experiments were repeated at least three times, and representative experiments are shown.

Assay [1] deals with MDA-MB-231 breast cancer cell-induced angiogenesis. Nature of the assay: Tumor angiogenesis in zebrafish (MDA-MB-231 xenograft). The format is in vivo. Conditions: 0.5 µM, 3 days, MDA-MB-231 in perivitelline space. The procedure: Two days post fertilization (dpf), four hundred mCherry-labeled human breast cancer MDA-MB-231 cells were injected into the perivitelline space of Tg (fli:EGFP) zebrafish embryos as previously described. The properly injected zebrafishes were randomly divided into five groups, and each group contained at least 30 embryos. […] The egg water was refreshed daily, and the abnormal embryos were removed. After 3 days, the embryos were fixed in 4% PFA for 2 h at room temperature and stored at 4 °C in PBS. The tumor cell-induced angiogenesis in the perivitelline space was imaged with an Andor Dragonfly 500 spinning disk confocal using 488 nm and 561 nm lasers. At least ten embryos per group were randomly selected and scanned. The experiments were repeated twice with similar results. Tumor angiogenesis was quantified using ImageJ, and the relative vasculature density was calculated according to the following formula: Relative vasculature density (%) = 100% × (Vessel intensity within the perivitelline space)/(tumor cells intensity within the perivitelline space).

Assay [2] deals with BMP9-induced SMAD1/5 phosphorylation. Nature of the assay: Western blot of BMP9-induced SMAD1/5 phosphorylation in EA.hy926 cells. The format is cell-based. Conditions: Homo sapiens, EA.hy 926, BMP9 1 ng/mL, 1 h, read-out: IC50 on BMP9-induced pSMAD1/5 response. The procedure:
as §1

In assay [3] the test system is BMP9-induced ID1, ID3, and SMAD6 mRNA expression. Briefly: RT-qPCR of BMP9-induced ID1, ID3 and SMAD6 mRNA in EA.hy926 cells. Conditions: 0.5 µM compound, BMP9 1 ng/mL. The format is cell-based, human. Here is the method:
EA.hy926 cells or HUVECs were seeded in 6-well plates and cultured until they reached 80% confluence. The medium was replaced with a serum-free medium for a 4 h starvation. For EA.hy926 cells, the compounds were added at a final concentration of 0.5 μM for 30 min, followed by BMP9 (1 ng/mL), TGF-β2 (1 ng/mL), or vehicle control addition and cultured for another 3 h before the cells were harvested. To investigate VEGF-induced cellular response, HUVECs were exposed to VEGF (40 ng/mL) for 1 h after 30 min pre-treatment with the compounds.
After samples were collected, total RNA was isolated and purified using the NucleoSpin RNA II kit (740955, BIOKE, Leiden, the Netherlands), following the manufacturer’s instructions. Then, the mRNA was used as a template to synthesize cDNA by performing reverse transcription with the RevertAid First Strand cDNA Synthesis Kit (K1621, ThermoFisher Scientific). Gene expression levels were determined by RT-qPCR analysis using the GoTaq qPCR Master Mix (A6001, Promega, Madison, WI, USA) and normalized to GAPDH expression. All the experiments were repeated three times, and results from three biologically independent experiments are shown.

The test system of assay [4] is BMP6-induced SMAD1/5 phosphorylation. Nature of the assay: Western blot of BMP6-induced SMAD1/5 phosphorylation in EA.hy926 cells. The format is cell-based, human. Conditions: BMP6 50 ng/mL. The procedure:
EA.hy926 cells or HUVECs were seeded in 6-well plates and starved in a serum-free medium for 4 h after reaching 80% confluence. The compounds were added 30 min prior to stimulation with the corresponding ligands. EA.hy926 cells were incubated with BMP9 (1 ng/mL), BMP6 (50 ng/mL), TGF-β2 (1 ng/mL), or vehicle control for 1 h. For HUVECs, after 4 h starvation, the cells were pre-treated with or without the indicated compounds for 30 min and subsequently stimulated with VEGF (40 ng/mL) for 10 min. The cells were harvested and lysed in radioimmunoprecipitation assay (RIPA) lysis buffer containing 1× complete protease inhibitor cocktail (11836153001, Roche, Basel, Switzerland). The protein concentration was determined using the DC protein assay kit (5000111, Bio-Rad). After adding loading buffer, the samples were boiled and proteins separated by sodium dodecyl sulfate polyacrylamide gel electrophoresis (SDS-PAGE). Proteins in the gel were transferred to polyvinylidene difluoride (PVDF) membranes (IPVH00010, Merck Millipore, Burlington, MA, USA) and immunoblotted with 1000 times diluted primary antibodies: phospho-SMAD1/5 (9516 S, Cell Signaling Technology, Leiden, The Netherlands), phospho-SMAD2 (pSMAD2, home-made), SMAD1 (6944 S, Cell Signaling Technology), SMAD2 (3103 S, Cell Signaling Technology), phospho-extracellular signal-regulated kinase/mitogen-activated protein kinase (pERK/MAPK, 4370, Cell Signaling Technology), mitogen-activated protein kinase/ERK1/2 (ERK1/2/MAPK, 9102 S, Cell Signaling Techonol), VEGFR (2479, Cell Signaling), pVEGFR (2478, Cell Signaling Technology), α/β-Tubulin (2148, Cell Signaling Technology), glyceraldehyde 3-phosphate dehydrogenase (GAPDH, MAB374, Merck Millipore). Clarity™ enhanced chemiluminescence (ECL) reagent (1705060, Bio-Rad) was used to visualize secondary antibodies conjugated to horseradish peroxidase (HRP). GAPDH or Tubulin was used as protein loading controls. All the experiments were repeated at least three times, and representative experiments are shown. The protein bands were quantified using ImageJ (National Institutes of Health, Bethesda, MD, USA).

Assay [5] has as its system TGF-β2-induced SMAD2 phosphorylation. Briefly: Western blot of TGF-β2-induced SMAD2 phosphorylation in EA.hy926 cells. The format is cell-based, human. Conditions: TGF-β2 1 ng/mL. Here is the method: as §1
The test system of a further assay is EA.hy926 cells. Briefly: Proliferation assay (IncuCyte confluence). The format is cell-based, human. Conditions: 0.5 µM, 3 days. The procedure:
Around 4 × 10^3 EA.hy926 cells per well were seeded in a 96-well microplate Essen ImageLock™ in 200 µL of culture medium containing the indicated concentrations of compounds and ligands, and the plate was directly inserted into the IncuCyte ZOOM instrument for scanning. Images of each well were acquired every 4 h for 3 days. The real-time cell confluence in each well was analyzed after normalizing to the initial cell density. All the experiments were repeated at least three times, and representative results are shown.

pIC50: −log10 of the molar value.

Take `CNC(=O)c1ccccc1Sc1ccc2c(/C=C/c3ccccn3)n[nH]c2c1` [Axitinib, reference compound]: the “effect on VEGF-induced pERK” value in the assay on VEGF-induced pERK is “blocked”. For the same compound, the “effect on VEGF-induced cord length, different concentrations” value (from here on “effect … different concentrations”) with HUVECs (VEGF 20 ng/mL, 9 days) is given as “potently inhibited”. Further, the “effect on cancer cell-induced angiogenesis (relative vasculature density)” value (“effect … (relative vasculature density)” below) in assay [1] is given as “markedly inhibited”.

As for `c1ccc2c(-c3cnn4cc(-c5ccc(N6CCNCC6)cc5)cnc34)ccnc2c1` [LDN-193189, reference compound], the pIC50 in assay [2] was 6.96. Moreover, the “effect on BMP9-induced ID1, ID3 and SMAD6 mRNA expression” value (shortened to “effect on BMP9-induced ID1”) in assay [3] is recorded as “inhibited”. Besides, in assay [4] (0.1 µM compound), the “effect on BMP6-induced SMAD1/5 phosphorylation” value is given as “efficiently inhibited”. The “effect on TGF-β2-induced SMAD2 phosphorylation” value in assay [5] (0.1 µM compound) is on record as “effectively attenuated”. Besides, the “effect on EC proliferation (real-time confluence)” value (from here on “effect on EC proliferation”) with EA.hy926 cells is reported as “strongly inhibited”. Moreover, the “effect on VEGF-induced EC cord formation” value in the assay on HUVECs is “no inhibitory effect and even slightly enhanced”.

In the case of `CN1CCc2cccc(c2)Nc2nccc(n2)N2CCCc3cc(ccc32)C1` [OD16], the pIC50 in assay [2] is 7.10. Also, the “effect on BMP9-induced ID1” value in assay [3] was “inhibited”. For the same compound, the “effect on BMP6-induced SMAD1/5 phosphorylation” value in assay [4] (0.1 µM compound) is on record as “efficiently inhibited”. Also, the “effect on TGF-β2-induced SMAD2 phosphorylation” value in assay [5] (dose range) is given as “in a dose-dependent manner but far less efficiently than LDN-193189”. Further, in the assay on VEGF-induced pERK, the “effect on VEGF-induced pERK” value is reported as “failed to alter”. Further, the “effect on EC proliferation” value with EA.hy926 cells was “LDN-193189 strongly inhibited ECs proliferation, unlike OD16 and OD29”. Also, the “effect on VEGF-induced EC cord formation” value with HUVECs is recorded as “antagonized”. The “effect on VEGF-induced cord formation at 0.5 μM” value in the assay with HUVECs (VEGF 20 ng/mL, 9 days, 0.5 μM) is on record as “apparent inhibitory effects”. Moreover, in the assay on HUVECs (VEGF 20 ng/mL, 9 days), the “effect … different concentrations” value was “antagonized in a dose-dependent manner”. The “effect … (relative vasculature density)” value in assay [1] is given as “significantly inhibited”.

Turning to `CN1CCC(=O)NCCNc2ccn3ncc(c3n2)-c2cccc(c2)C1` [OD29], in assay [2], the pIC50 is 6.37. Moreover, the “effect on BMP9-induced ID1” value in assay [3] was “inhibited”. Moreover, the “effect on BMP6-induced SMAD1/5 phosphorylation” value in assay [4] (0.1 µM compound) is listed as “failed to antagonize”; in assay [4] (1 µM compound) it was “very weak inhibitory effect”. For the same compound, in assay [5] (dose range), the “effect on TGF-β2-induced SMAD2 phosphorylation” value is reported as “nearly no inhibitory effect”. Also, in the assay with VEGF-induced pERK, the “effect on VEGF-induced pERK” value is given as “profoundly decreased”. In addition, the “effect on EC proliferation” value in the assay on EA.hy926 cells is “LDN-193189 strongly inhibited ECs proliferation, unlike OD16 and OD29”. Moreover, in the assay with HUVECs, the “effect on VEGF-induced EC cord formation” value was “antagonized”. In addition, in the assay with HUVECs (VEGF 20 ng/mL, 9 days, 0.1 μM), the “effect on VEGF-induced cord formation at 0.1 μM” value was “effectively attenuated”. The “effect … different concentrations” value in the assay with HUVECs (VEGF 20 ng/mL, 9 days) is recorded as “antagonized in a dose-dependent manner”. The “effect … (relative vasculature density)” value in assay [1] is “significantly inhibited”.

These data come from paper PMC8231556, “Inhibiting Endothelial Cell Function in Normal and Tumor Angiogenesis Using BMP Type I Receptor Macrocyclic Kinase Inhibitors” (Cancers, 2021).
